{"source": "patent US8962674B2", "about": "(Tokyo Institute of Technology, priority 2006, dated 2015)"}
{"units": {"melting point": "°C"}}
{"molecule": "O=C(/C=C/c1ccc(O)cc1)CC(=O)/C=C/c1ncc[nH]1", "note": "[CU143, (1E,6E)-1-(4-hydroxyphenyl)-7-(1H-imidazol-2-yl)hepta-1,6-diene-3,5-dione]", "melting point": "175 to 181"}
{"molecule": "CCn1c2ccccc2c2cc(CCC(=O)CC(=O)CCc3ccc(OC)c(O)c3)ccc21", "note": "[CU508, 1-(9-ethyl-9H-carbazol-3-yl)-7-(3-hydroxy-4-methoxyphenyl)heptane-3,5-dione]", "melting point": "97 to 100"}
{"molecule": "O=C(/C=C/c1ccc(O)cc1)CC(=O)/C=C/c1cc(OCc2c(F)cccc2Cl)ccc1[N+](=O)[O-]", "note": "[CU492, (1E,6E)-1-[5-(2-chloro-6-fluorobenzyloxy)-2-nitrophenyl]-7-(4-hydroxyphenyl)hepta-1,6-diene-3,5-dione]", "melting point": "180 to 183"}
{"molecule": "COc1cccc(/C=C/C(=O)CC(=O)/C=C/c2ccc(O)cc2)c1OC", "note": "[CU069, (1E,6E)-1-(2,3-dimethoxyphenyl)-7-(4-hydroxyphenyl)hepta-1,6-diene-3,5-dione]", "melting point": "70 to 72"}
{"molecule": "COc1ccc(/C=C/C(=O)CC(=O)/C=C/c2ccccc2O)cc1O", "note": "[CU084, (1E,6E)-1-(2-hydroxyphenyl)-7-(3-hydroxy-4-methoxyphenyl)hepta-1,6-diene-3,5-dione]", "melting point": "90 to 96"}
{"molecule": "COc1ccc(/C=C/C(=O)CC(=O)/C=C/c2cccc(Oc3ccccc3)c2)cc1O", "note": "[CU220, (1E,6E)-1-(3-hydroxy-4-methoxyphenyl)-7-(3-phenoxyphenyl)hepta-1,6-diene-3,5-dione]", "melting point": "148 to 150"}
{"molecule": "O=C(/C=C/c1ccc(O)cc1)CC(=O)/C=C/c1cc(OCc2ccc(Cl)cc2Cl)ccc1[N+](=O)[O-]", "note": "[CU493, (1E,6E)-1-[5-(2,4-dichlorobenzyloxy)-2-nitrophenyl]-7-(4-hydroxyphenyl)hepta-1,6-diene-3,5-dione]", "melting point": "157 to 161"}
{"molecule": "Nc1ccccc1/C=C/C(=O)CC(=O)/C=C/c1ccc(O)cc1", "note": "[CU482, (1E,6E)-1-(2-aminophenyl)-7-(4-hydroxyphenyl)hepta-1,6-diene-3,5-dione]", "melting point": "186 to 193"}
{"molecule": "COc1ccc(/C=C/C(=O)CC(=O)/C=C/c2ccccc2OC)cc1O", "note": "[CU068, (1E,6E)-1-(3-hydroxy-4-methoxyphenyl)-7-(2-methoxyphenyl)hepta-1,6-diene-3,5-dione]", "melting point": "102 to 108"}
{"molecule": "COc1cc(/C=C/C(=O)CC(=O)/C=C/c2ccc(N(C)C)c(OC)c2)ccc1O", "note": "[CU033, (1E,6E)-1-(4-dimethylamino-3-methoxyphenyl)-7-(4-hydroxy-3-methoxyphenyl)hepta-1,6-diene-3,5-dione]", "melting point": "68 to 75"}
{"molecule": "CCN(CC)c1ccc(/C=C/C(=O)CC(=O)/C=C/c2ccc(OC)c(O)c2)c(OCC=C(C)C)c1", "note": "[CU442, (1E,6E)-1-(4-diethylamino-2-prenyloxyphenyl)-7-(3-hydroxy-4-methoxyphenyl)hepta-1,6-diene-3,5-dione]", "melting point": "139 to 143"}
{"molecule": "COc1ccc(/C=C/C(=O)CC(=O)/C=C/c2ccc(OC)c(O)c2)c(OC)c1", "note": "[CU074, (1E,6E)-1-(2,4-dimethoxyphenyl)-7-(3-hydroxy-4-methoxyphenyl)hepta-1,6-diene-3,5-dione]", "melting point": "64 to 70"}
{"molecule": "O=C(/C=C/c1ccc(O)cc1)CC(=O)/C=C/c1ccc(Br)cc1F", "note": "[CU471, (1E,6E)-1-(4-bromo-2-fluorophenyl)-7-(4-hydroxyphenyl)hepta-1,6-diene-3,5-dione]", "melting point": "223 to 232"}
{"molecule": "COc1ccc(/C=C/C(=O)CC(=O)/C=C/c2ccc(N(C)C)cc2OC)cc1O", "note": "[CU155, (1E,6E)-1-(4-dimethylamino-2-methoxyphenyl)-7-(3-hydroxy-4-methoxyphenyl)hepta-1,6-diene-3,5-dione]", "melting point": "108 to 113"}
{"molecule": "COc1ccc(/C=C/C(=O)CC(=O)/C=C/c2ccc(O)c(C)c2)cc1O", "note": "[CU052, (1E,6E)-1-(3-hydroxy-4-methoxyphenyl)-7-(4-hydroxy-3-methylphenyl)hepta-1,6-diene-3,5-dione]", "melting point": "215 to 218"}
{"molecule": "O=C(/C=C/c1ccc(O)cc1)CC(=O)/C=C/c1ccc2c(c1)OCCO2", "note": "[CU232, (1E,6E)-1-(2,3-dihydrobenzo[1,4]dioxin-6-yl)-7-(4-hydroxyphenyl)hepta-1,6-diene-3,5-dione]", "melting point": "169 to 173"}
{"molecule": "COc1cc(/C=C/C(=O)CC(=O)/C=C/c2ccc(OCCCN(C)C)cc2)ccc1O", "note": "[CU018, (1E,6E)-1-[4-(3-dimethylaminopropoxy)phenyl]-7-(4-hydroxy-3-methoxyphenyl)hepta-1,6-diene-3,5-dione]", "melting point": "155 to 159"}
{"molecule": "N[C@H](Cc1ccccc1)C(=O)Nc1ccc(/C=C/C(=O)CC(=O)/C=C/c2ccc(O)cc2)cc1", "note": "[CU423, (1E,6E)-1-[4-((R)-2-amino-3-phenylpropionylamino)phenyl]-7-(4-hydroxyphenyl)hepta-1,6-diene-3,5-dione]", "melting point": "161 to 167"}
{"molecule": "COc1ccc(/C=C/C(=O)CC(=O)/C=C/c2ccc(N(C)C)cc2Cl)cc1O", "note": "[CU202, (1E,6E)-1-(2-chloro-4-dimethylaminophenyl)-7-(3-hydroxy-4-methoxyphenyl)hepta-1,6-diene-3,5-dione]", "melting point": "160 to 164"}
{"molecule": "O=C(/C=C/c1ccc(O)cc1)CC(=O)/C=C/c1cc(Cl)cc(Cl)c1O", "note": "[CU281, (1E,6E)-1-(3,5-dichloro-2-hydroxyphenyl)-7-(4-hydroxyphenyl)hepta-1,6-diene-3,5-dione]", "melting point": "199 to 201"}
{"molecule": "COc1cc(/C=C/C(=O)CC(=O)/C=C/c2ccc(O)c(Cl)c2)ccc1O", "note": "[CU007, (1E,6E)-1-(3-chloro-4-hydroxyphenyl)-7-(4-hydroxy-3-methoxyphenyl)hepta-1,6-diene-3,5-dione]", "melting point": "90 to 95"}
{"molecule": "CN(C)S(=O)(=O)c1ccccc1/C=C/C(=O)CC(=O)/C=C/c1ccc(O)cc1", "note": "[CU480, (1E,6E)-1-[2-(dimethylaminosulfonyl)phenyl]-7-(4-hydroxyphenyl)hepta-1,6-diene-3,5-dione]", "melting point": "86 to 90"}
{"molecule": "COc1cc(/C=C/C(=O)CC(=O)/C=C/c2ncc[nH]2)ccc1O", "note": "[CU152, (1E,6E)-1-(4-hydroxy-3-methoxyphenyl)-7-(1H-imidazol-2-yl)hepta-1,6-diene-3,5-dione]", "melting point": "235 to 240"}
{"molecule": "O=C(/C=C/c1ccc(O)cc1Cl)CC(=O)/C=C/c1ccc(O)cc1Cl", "note": "[CU362, (1E,6E)-1,7-bis(2-chloro-4-hydroxyphenyl)hepta-1,6-diene-3,5-dione]", "melting point": "248 to 254"}
{"molecule": "COc1cc(/C=C/C(=O)CC(=O)/C=C/c2ccc(O)cc2)c(Br)cc1O", "note": "[CU539, (1E,6E)-1-(2-bromo-4-hydroxy-5-methoxyphenyl)-7-(4-hydroxyphenyl)hepta-1,6-diene-3,5-dione]", "melting point": "237 to 242"}
{"molecule": "O=C(/C=C/c1ccc(O)cc1)CC(=O)/C=C/c1ccc2ccn(Cc3ccccc3)c2c1", "note": "[CU400, (1E,6E)-1-(1-benzyl-1H-indol-6-yl)-7-(4-hydroxyphenyl)hepta-1,6-diene-3,5-dione]", "melting point": "164 to 170"}
{"molecule": "CN(C)c1ccc(/C=C/C(=O)CC(=O)/C=C/c2ccc(O)cc2)cc1", "note": "[CU207, (1E,6E)-1-(4-dimethylaminophenyl)-7-(4-hydroxyphenyl)hepta-1,6-diene-3,5-dione]", "melting point": "205 to 209"}
{"molecule": "COc1cc(/C=C/C(=O)CC(=O)/C=C/c2ccccc2OC)ccc1O", "note": "[CU067, (1E,6E)-1-(4-hydroxy-3-methoxyphenyl)-7-(2-methoxyphenyl)hepta-1,6-diene-3,5-dione]", "melting point": "61 to 66"}
{"molecule": "COc1cc(/C=C/C(=O)CC(=O)/C=C/c2ccc(O)c(F)c2)ccc1O", "note": "[CU032, (1E,6E)-1-(3-fluoro-4-hydroxyphenyl)-7-(4-hydroxy-3-methoxyphenyl)hepta-1,6-diene-3,5-dione]", "melting point": "186 to 189"}
{"molecule": "COc1ccc(/C=C/C(=O)CC(=O)/C=C/c2c(OC)ccc3ccccc23)cc1O", "note": "[CU117, (1E,6E)-1-(3-hydroxy-4-methoxyphenyl)-7-(2-methoxynaphthalen-1-yl)hepta-1,6-diene-3,5-dione]", "melting point": "150 to 155"}
{"molecule": "COc1cc(/C=C/C(=O)CC(=O)/C=C/c2cc(O)ccc2O)ccc1O", "note": "[CU106, (1E,6E)-1-(2,5-dihydroxyphenyl)-7-(4-hydroxy-3-methoxyphenyl)hepta-1,6-diene-3,5-dione]", "melting point": "125 to 130"}
{"molecule": "COc1ccc(/C=C/C(=O)CC(=O)/C=C/c2ccc(O)c([N+](=O)[O-])c2)cc1O", "note": "[CU041, (1E,6E)-1-(3-hydroxy-4-methoxyphenyl)-7-(4-hydroxy-3-nitrophenyl)hepta-1,6-diene-3,5-dione]", "melting point": "220 to 224"}
{"molecule": "COc1cc(/C=C/C(=O)CC(=O)/C=C/c2ccccc2O)ccc1O", "note": "[CU082, (1E,6E)-1-(4-hydroxy-3-methoxyphenyl)-7-(2-hydroxyphenyl)hepta-1,6-diene-3,5-dione]", "melting point": "77 to 83"}
{"molecule": "COc1cccc(/C=C/C(=O)CC(=O)/C=C/c2ccc(O)cc2)c1O", "note": "[CU249, (1E,6E)-1-(2-hydroxy-3-methoxyphenyl)-7-(4-hydroxyphenyl)hepta-1,6-diene-3,5-dione]", "melting point": "169 to 175"}
{"molecule": "O=C(/C=C/c1ccc2cc[nH]c2c1)CC(=O)/C=C/c1ccc2cc[nH]c2c1", "note": "[CU391, (1E,6E)-1,7-bis(1H-indol-6-yl)hepta-1,6-diene-3,5-dione]", "melting point": "247 to 255"}
{"molecule": "O=C(/C=C/c1ccc(O)cc1)CC(=O)/C=C/c1cc(Br)ccc1F", "note": "[CU466, (1E,6E)-1-(5-bromo-2-fluorophenyl)-7-(4-hydroxyphenyl)hepta-1,6-diene-3,5-dione]", "melting point": "177 to 203"}
{"molecule": "COc1ccc(O)c(/C=C/C(=O)CC(=O)/C=C/c2ccc(O)cc2)c1", "note": "[CU253, (1E,6E)-1-(2-hydroxy-5-methoxyphenyl)-7-(4-hydroxyphenyl)hepta-1,6-diene-3,5-dione]", "melting point": "167 to 170"}
{"molecule": "CCN(CC)c1ccc(/C=C/C(=O)CC(=O)/C=C/c2ccc(O)c(OC)c2)c(OCc2ccccc2)c1", "note": "[CU437, (1E,6E)-1-(2-benzyloxy-4-diethylaminophenyl)-7-(4-hydroxy-3-methoxyphenyl)hepta-1,6-diene-3,5-dione]", "melting point": "60 to 65"}
{"molecule": "Cc1ccc(Oc2ccc(/C=C/C(=O)CC(=O)/C=C/c3ccc(O)cc3)cn2)cc1", "note": "[CU333, (1E,6E)-1-(4-hydroxyphenyl)-7-[6-(4-methylphenoxy)pyridin-3-yl]hepta-1,6-diene-3,5-dione]", "melting point": "167 to 172"}
{"molecule": "COc1ccc(/C=C/C(=O)CC(=O)/C=C/c2ccc(SC)cc2)cc1O", "note": "[CU216, (1E,6E)-1-(3-hydroxy-4-methoxyphenyl)-7-(4-methylthiophenyl)hepta-1,6-diene-3,5-dione]", "melting point": "158 to 162"}
